The text below walks through data of publication PMC3479967 (Evidence-based Complementary and Alternative Medicine : eCAM, 2012).

Each structure is given as a SMILES string.

This experiment deals with T1, UGT1A3 (Homo sapiens, UniProt P35503).
T1 sequence (P35503 29-534): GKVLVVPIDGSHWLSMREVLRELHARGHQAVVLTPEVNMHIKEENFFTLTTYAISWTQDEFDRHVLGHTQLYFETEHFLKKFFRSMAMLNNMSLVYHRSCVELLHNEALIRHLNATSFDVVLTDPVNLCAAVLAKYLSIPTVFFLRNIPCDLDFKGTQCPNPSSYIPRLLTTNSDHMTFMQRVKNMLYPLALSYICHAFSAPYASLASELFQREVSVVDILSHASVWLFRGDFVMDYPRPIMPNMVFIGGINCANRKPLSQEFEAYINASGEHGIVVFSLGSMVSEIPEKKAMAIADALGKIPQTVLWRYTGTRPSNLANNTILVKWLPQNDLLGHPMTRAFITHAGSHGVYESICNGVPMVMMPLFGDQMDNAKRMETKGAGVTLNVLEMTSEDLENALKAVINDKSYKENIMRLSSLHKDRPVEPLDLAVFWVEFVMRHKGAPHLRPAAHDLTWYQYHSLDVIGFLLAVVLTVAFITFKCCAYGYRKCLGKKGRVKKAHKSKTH
In words: Inhibition of recombinant UGT1A3 activity (4-MU glucuronidation). On the procedure: A panel of recombinant human UGT supersomes (UGT1A1, UGT1A3, UGT1A4, UGT1A6, UGT1A7, UGT1A8, UGT1A9, UGT1A10, UGT2B4, UGT2B7, UGT2B15, and UGT2B17) expressed in baculovirus-infected insect cells were purchased from BD Gentest Corp. (Woburn, MA, USA).
4-MU, a nonselective substrate of UGTs, was used as probe substrate for all UGTs except UGT1A4. Incubations with each individual enzyme were conducted using conditions previously described. There was a 5 min preincubation step at 37°C before the reaction was started by addition of UDPGA. The incubation mixtures were then centrifuged at 20,500 ×g for 15 min to obtain the supernatant. Aliquots (20 μL) were then analyzed by HPLC. The HPLC system (SHIMADZU, Kyoto, Japan) consisted of an SCL-10A system controller, two LC-10AT pumps, a SIL-10A auto injector, and a SPD-10AVP UV detector. […] The mobile phase consisted of 10 mM KH2PO4, pH 2.7 (A) and acetonitrile (B). The following gradient was applied at a flow rate of 1 mL/min: 0–4 min 80% A and 20% B, 4.1–8 min 50% A and 50% B, 8.1–12 min, 30% A and 70% B. All experiments were performed in two independent experiments in duplicate.
A typical incubation mixture contained recombinant human UGTs, 5 mM MgCl2, 5 mM UDPGA, 50 μg/mg protein alamethicin, 50 mM Tris-HCl buffer (pH 7.4), and various probe substrates of UGTs in the absence or presence of different concentrations of inhibitors. […] The final concentration of DMSO in the incubation system was 1% (v/v). […] Known UGT inhibitors were used as positive controls: diclofenac for UGT1A1, UGT1A6, UGT1A7, and UGT1A9; androsterone for UGT1A3, UGT2B7, and UGT2B15, phenylbutazone for UGT1A8 and UGT1A10, and hecogenin for UGT1A4, respectively. There is no positive control reported available for UGT2B4 and UGT2B17. The negative controls are the incubation without UDPGA. […] The final concentration of DMSO in the incubation system was 1% (v/v). […] There was a 5 min preincubation step at 37°C before the reaction was started by the addition of UDPGA. Incubation times were 120 min for UGT1A1, UGT1A10, UGT2B4, UGT2B15, and UGT2B17, 75 min for UGT1A3, and 30 min for UGT1A4, UGT1A6, UGT1A7, UGT1A8, and UGT1A9. The reactions were quenched by adding 100 μL acetonitrile and internal standard. The incubation mixtures were then centrifuged at 20,500 ×g for 15 min to obtain the supernatant. An aliquot of the supernatant was used for HPLC analysis as described above. All experiments were performed in two independent experiments in duplicate.
Inhibition data from experiments were graphically represented by Dixon plots. K i values were calculated by nonlinear regression using the equations for competitive inhibition (1), noncompetitive inhibition (2), or mixed inhibition (3), [22] […] The type of inhibition was determined from the enzyme inhibition models. […]

On to `COc1ccc(-c2oc3c(CC=C(C)C)c(O[C@@H]4O[C@H](CO)[C@@H](O)[C@H](O)[C@H]4O)cc(O)c3c(=O)c2O[C@@H]2O[C@@H](C)[C@H](O)[C@@H](O)[C@H]2O)cc1` [Icariin], for which the IC50 turned out to be 12.4 ± 0.1 µM and the Ki turned out to be 8 ± 1.4 µM.

For the compound `COc1ccc(-c2oc3c(CC=C(C)C)c(O[C@@H]4O[C@H](CO)[C@@H](O)[C@H](O)[C@H]4O)cc(O)c3c(=O)c2O)cc1` [Icariside I], the half-inhibitory concentration (IC50) is above 100 µM. Still for that read-out and setting: then `COc1ccc(-c2oc3c(CC=C(C)C)c(O)cc(O)c3c(=O)c2O)cc1` [Icaritin], with above 100 µM.
